# Results published in ChEMBL document CHEMBL4680207, “The discovery, design and synthesis of potent agonists of adenylyl cyclase type 2 by virtual screening combining biological evaluation” (Eur J Med Chem, 2020).
# What was measured:
# Format in all cases: cell-based
# Adenylate cyclase type 2 [1] = target: T1, Adenylate cyclase type 2 (Homo sapiens, UniProt Q08462); test: Agonist activity at recombinant human AC2 expressed in HEK293 cells assessed as reduction in IL6 level by measuring IL6 level at 50 uM measured after 24 hrs by ELISA relative to control; design: scale not given: the % may be the effect or the level left
# Adenylate cyclase type 2 [2] = target: T1, Adenylate cyclase type 2; test: Agonist activity at recombinant human AC2 expressed in HEK293 cells assessed as increase in cAMP level measured after 30 mins by LANCE Ultra cAMP Detection kit method
# Adenylate cyclase type 2 [3] = target: T1, Adenylate cyclase type 2; test: Agonist activity at recombinant human AC2 expressed in HEK293 cells assessed as increase in cAMP level by measuring cAMP level at 50 uM measured after 30 mins by LANCE Ultra cAMP Detection kit method relative to control; conditions: filed as agonist
# Adenylate cyclase type 5 = Adenylate cyclase type 5 (Homo sapiens, UniProt O95622); test: Agonist activity at recombinant human AC5 expressed in HEK293 cells assessed as increase in cAMP level at 50 uM measured after 30 mins by LANCE Ultra cAMP Detection kit method; conditions: hek293, 0.5 h
# Adenylate cyclase type 2 [4] = target: T1, Adenylate cyclase type 2; test: Potency index, ratio of forskolin EC50 to test compound EC50 for agonist activity at recombinant human AC2 expressed in HEK293 cells assessed as increase in cAMP level
# Adenylate cyclase type 8 = Adenylate cyclase type 8 (Homo sapiens, UniProt P40145); test: Agonist activity at recombinant human AC8 expressed in HEK293 cells assessed as increase in cAMP level at 50 uM measured after 30 mins by LANCE Ultra cAMP Detection kit method; conditions: hek293, 0.5 h
# Adenylate cyclase type 1 = Adenylate cyclase type 1 (Homo sapiens, UniProt Q08828); test: Agonist activity at recombinant human AC1 expressed in HEK293 cells assessed as increase in cAMP level at 50 uM measured after 30 mins by LANCE Ultra cAMP Detection kit method; conditions: hek293, 0.5 h
# Chain of Adenylate cyclase type 1 (Q08828 whole entry): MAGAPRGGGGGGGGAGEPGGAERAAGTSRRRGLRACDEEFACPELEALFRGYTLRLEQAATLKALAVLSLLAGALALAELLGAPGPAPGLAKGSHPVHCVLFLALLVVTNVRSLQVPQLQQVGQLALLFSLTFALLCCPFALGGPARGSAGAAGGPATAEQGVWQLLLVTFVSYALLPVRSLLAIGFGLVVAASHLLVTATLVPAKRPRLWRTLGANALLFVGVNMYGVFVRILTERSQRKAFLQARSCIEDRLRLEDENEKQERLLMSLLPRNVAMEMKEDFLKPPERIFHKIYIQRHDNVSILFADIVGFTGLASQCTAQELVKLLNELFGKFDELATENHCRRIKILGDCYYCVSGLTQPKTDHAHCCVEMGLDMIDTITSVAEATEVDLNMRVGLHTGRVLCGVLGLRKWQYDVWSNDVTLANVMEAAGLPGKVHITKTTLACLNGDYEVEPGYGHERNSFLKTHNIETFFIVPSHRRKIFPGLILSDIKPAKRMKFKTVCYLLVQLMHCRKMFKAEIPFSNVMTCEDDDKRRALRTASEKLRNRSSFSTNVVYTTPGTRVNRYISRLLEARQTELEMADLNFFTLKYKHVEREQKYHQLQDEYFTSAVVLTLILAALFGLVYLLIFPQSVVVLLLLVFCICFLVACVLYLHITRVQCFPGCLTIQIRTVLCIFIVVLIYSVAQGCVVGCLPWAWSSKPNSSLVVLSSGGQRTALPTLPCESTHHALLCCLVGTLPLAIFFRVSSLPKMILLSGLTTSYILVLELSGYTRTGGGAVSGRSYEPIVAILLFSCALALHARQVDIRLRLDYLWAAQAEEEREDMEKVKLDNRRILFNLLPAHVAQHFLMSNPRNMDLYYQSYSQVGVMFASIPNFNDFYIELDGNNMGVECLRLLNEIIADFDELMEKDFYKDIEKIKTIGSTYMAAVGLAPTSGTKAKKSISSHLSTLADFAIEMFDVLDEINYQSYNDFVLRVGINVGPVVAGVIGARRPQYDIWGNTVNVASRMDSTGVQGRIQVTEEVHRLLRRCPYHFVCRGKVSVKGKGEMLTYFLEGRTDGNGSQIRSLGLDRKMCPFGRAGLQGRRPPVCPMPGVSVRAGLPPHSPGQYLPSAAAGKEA
# T1 sequence (Q08462 whole entry): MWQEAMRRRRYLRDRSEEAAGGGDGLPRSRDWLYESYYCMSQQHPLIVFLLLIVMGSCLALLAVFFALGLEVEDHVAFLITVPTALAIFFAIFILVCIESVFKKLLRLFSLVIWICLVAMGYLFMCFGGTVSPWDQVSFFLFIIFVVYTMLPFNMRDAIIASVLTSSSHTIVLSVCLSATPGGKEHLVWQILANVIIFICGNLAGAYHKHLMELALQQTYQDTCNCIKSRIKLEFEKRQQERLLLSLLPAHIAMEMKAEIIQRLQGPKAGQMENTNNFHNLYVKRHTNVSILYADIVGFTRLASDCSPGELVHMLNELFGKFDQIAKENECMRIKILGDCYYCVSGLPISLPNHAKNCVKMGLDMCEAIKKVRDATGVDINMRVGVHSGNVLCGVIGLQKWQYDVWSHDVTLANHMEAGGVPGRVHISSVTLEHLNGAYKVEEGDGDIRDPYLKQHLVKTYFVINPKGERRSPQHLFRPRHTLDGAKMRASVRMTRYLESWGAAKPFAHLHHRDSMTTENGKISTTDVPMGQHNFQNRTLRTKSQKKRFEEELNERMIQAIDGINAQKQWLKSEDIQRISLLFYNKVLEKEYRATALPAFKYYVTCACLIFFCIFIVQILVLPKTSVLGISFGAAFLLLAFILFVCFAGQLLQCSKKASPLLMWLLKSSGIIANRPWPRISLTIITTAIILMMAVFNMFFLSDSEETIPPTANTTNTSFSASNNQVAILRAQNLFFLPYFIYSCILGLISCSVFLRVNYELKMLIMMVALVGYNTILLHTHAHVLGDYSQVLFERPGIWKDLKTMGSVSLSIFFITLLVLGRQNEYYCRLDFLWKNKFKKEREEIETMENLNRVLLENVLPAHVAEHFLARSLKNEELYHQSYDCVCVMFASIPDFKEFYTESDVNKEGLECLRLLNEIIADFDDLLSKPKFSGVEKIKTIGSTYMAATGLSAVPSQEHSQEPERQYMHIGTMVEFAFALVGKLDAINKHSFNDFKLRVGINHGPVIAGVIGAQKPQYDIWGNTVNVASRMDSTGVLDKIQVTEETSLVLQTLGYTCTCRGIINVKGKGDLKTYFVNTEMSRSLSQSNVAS
# Chain of Adenylate cyclase type 8 (P40145 whole entry): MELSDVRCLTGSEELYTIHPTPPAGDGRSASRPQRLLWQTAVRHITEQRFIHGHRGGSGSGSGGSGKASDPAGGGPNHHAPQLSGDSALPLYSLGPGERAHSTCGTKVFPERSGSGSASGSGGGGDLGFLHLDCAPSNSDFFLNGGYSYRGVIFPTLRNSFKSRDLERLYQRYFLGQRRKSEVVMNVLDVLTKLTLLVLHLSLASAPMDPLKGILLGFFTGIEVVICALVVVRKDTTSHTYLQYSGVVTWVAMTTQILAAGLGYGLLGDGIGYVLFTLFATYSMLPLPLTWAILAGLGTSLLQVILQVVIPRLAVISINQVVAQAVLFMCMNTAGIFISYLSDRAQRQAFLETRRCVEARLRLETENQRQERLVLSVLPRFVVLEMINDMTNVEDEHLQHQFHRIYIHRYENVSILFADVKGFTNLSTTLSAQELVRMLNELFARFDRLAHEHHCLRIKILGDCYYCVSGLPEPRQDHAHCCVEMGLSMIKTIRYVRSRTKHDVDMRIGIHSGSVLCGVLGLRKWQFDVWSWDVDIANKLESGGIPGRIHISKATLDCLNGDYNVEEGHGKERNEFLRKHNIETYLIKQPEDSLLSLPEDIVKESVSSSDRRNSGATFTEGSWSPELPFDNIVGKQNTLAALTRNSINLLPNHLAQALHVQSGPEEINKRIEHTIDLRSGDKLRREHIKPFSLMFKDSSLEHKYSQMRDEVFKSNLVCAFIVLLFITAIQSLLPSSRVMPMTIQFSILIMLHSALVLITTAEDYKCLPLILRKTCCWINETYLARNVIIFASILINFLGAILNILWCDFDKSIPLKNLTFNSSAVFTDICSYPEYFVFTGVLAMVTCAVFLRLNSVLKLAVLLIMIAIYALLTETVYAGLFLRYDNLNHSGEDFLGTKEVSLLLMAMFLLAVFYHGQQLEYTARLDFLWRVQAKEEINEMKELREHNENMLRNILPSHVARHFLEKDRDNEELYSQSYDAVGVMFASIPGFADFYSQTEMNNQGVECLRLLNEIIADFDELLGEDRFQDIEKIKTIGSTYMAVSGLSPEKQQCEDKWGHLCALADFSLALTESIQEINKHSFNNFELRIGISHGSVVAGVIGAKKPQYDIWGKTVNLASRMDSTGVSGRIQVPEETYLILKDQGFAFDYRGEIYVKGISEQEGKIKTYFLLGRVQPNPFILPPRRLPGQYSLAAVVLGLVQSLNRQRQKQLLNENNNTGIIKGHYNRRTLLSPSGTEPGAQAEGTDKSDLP
# Chain of Adenylate cyclase type 5 (O95622 whole entry): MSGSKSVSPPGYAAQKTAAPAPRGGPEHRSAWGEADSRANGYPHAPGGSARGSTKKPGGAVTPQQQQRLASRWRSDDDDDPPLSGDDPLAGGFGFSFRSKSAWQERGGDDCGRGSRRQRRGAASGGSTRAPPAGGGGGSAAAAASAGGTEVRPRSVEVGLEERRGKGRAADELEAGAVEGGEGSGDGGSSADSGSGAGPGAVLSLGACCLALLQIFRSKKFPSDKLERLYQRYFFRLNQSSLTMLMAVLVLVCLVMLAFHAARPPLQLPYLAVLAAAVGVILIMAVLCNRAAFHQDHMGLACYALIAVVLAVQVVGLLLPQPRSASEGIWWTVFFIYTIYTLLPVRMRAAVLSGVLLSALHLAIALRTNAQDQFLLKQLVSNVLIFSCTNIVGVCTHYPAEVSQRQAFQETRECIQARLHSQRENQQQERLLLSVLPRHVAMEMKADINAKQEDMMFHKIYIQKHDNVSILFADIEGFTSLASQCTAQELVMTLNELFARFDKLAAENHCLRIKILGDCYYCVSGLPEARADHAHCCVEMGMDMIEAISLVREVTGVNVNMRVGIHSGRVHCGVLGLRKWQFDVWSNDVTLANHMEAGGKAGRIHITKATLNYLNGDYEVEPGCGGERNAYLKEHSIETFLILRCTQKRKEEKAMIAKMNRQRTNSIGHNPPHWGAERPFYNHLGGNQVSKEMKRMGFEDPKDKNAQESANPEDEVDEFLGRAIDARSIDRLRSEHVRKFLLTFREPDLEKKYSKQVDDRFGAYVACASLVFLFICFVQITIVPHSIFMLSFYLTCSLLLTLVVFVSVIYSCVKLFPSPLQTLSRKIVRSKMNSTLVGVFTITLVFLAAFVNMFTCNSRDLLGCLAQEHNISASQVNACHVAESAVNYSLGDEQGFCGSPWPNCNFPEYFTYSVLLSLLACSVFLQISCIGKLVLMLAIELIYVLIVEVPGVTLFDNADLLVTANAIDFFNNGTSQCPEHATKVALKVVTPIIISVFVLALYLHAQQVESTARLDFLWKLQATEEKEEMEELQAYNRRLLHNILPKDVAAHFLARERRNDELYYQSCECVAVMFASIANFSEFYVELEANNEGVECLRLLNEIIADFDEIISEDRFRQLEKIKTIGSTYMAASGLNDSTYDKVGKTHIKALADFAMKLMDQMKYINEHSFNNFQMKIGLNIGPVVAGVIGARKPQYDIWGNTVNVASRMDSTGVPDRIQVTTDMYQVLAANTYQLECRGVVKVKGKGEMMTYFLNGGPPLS
smiles,measurement,setting,value
Cc1ccc([C@H]2OC3(C(=O)c4ccc(Br)cc4C3=O)[C@H]3C(=O)N(c4ccccc4Cl)C(=O)[C@@H]23)cc1 (some centres not stated),Activity,Adenylate cyclase type 2 [1],37.1%
same,EC50,Adenylate cyclase type 2 [2],90 nM
same,Activity,Adenylate cyclase type 2 [3],87.8%
same,Activity,Adenylate cyclase type 5,Not Active
same,Ratio EC50,Adenylate cyclase type 2 [4],160
same,Activity,Adenylate cyclase type 8,Not Active
same,Activity,Adenylate cyclase type 1,Not Active
